According to PubChem BioAssay (NCI):
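In this assay, cells in 96-well plates receive the compound at five concentrations for 48 hours. Endpoints are linearly interpolated between the surrounding concentrations. Definition used: TGI = concentration required for complete inhibition of growth.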

Experiments:
Test in all cases: inhibition of tumour cell growth, NCI panel, 48 h
TK-10 renal = tested on: TK-10 renal
SF-268 CNS = tested on: SF-268 CNS
SK-MEL-28 melanoma = tested on: SK-MEL-28 melanoma
RXF 393 renal = tested on: RXF 393 renal
786-0 renal = tested on: 786-0 renal
OVCAR-3 ovarian = tested on: OVCAR-3 ovarian
U251 CNS = tested on: U251 CNS
SNB-19 CNS = tested on: SNB-19 CNS
KM12 colon = tested on: KM12 colon
M14 melanoma = tested on: M14 melanoma
HCT-116 colon = tested on: HCT-116 colon
IGROV1 ovarian = tested on: IGROV1 ovarian
OVCAR-8 ovarian = tested on: OVCAR-8 ovarian
NCI-H226 lung = tested on: NCI-H226 lung
HS 578T breast = tested on: HS 578T breast
NCI/ADR-RES ovarian = tested on: NCI/ADR-RES ovarian
COLO 205 colon = tested on: COLO 205 colon
NCI-H460 lung = tested on: NCI-H460 lung
OVCAR-5 ovarian = tested on: OVCAR-5 ovarian
ACHN renal = tested on: ACHN renal
HOP-62 NSCLC = tested on: HOP-62 NSCLC
LOX IMVI melanoma = tested on: LOX IMVI melanoma
MOLT-4 leukemia = tested on: MOLT-4 leukemia
SR leukemia = tested on: SR leukemia
DU-145 prostate = tested on: DU-145 prostate
NCI-H522 lung = tested on: NCI-H522 lung
A498 renal = tested on: A498 renal
HOP-92 NSCLC = tested on: HOP-92 NSCLC
UACC-257 melanoma = tested on: UACC-257 melanoma
SF-539 CNS = tested on: SF-539 CNS
MDA-N = tested on: MDA-N
HCC-2998 colon = tested on: HCC-2998 colon
CAKI-1 renal = tested on: CAKI-1 renal
HT29 colon = tested on: HT29 colon
MALME-3M melanoma = tested on: MALME-3M melanoma
K-562 leukemia = tested on: K-562 leukemia
SK-MEL-2 melanoma = tested on: SK-MEL-2 melanoma
T-47D breast = tested on: T-47D breast
SF-295 CNS = tested on: SF-295 CNS
MCF7 breast = tested on: MCF7 breast
SW-620 colon = tested on: SW-620 colon
BT-549 breast = tested on: BT-549 breast
SN12C renal = tested on: SN12C renal
MDA-MB-231 breast = tested on: MDA-MB-231 breast
NCI-H23 lung = tested on: NCI-H23 lung
A549 NSCLC = tested on: A549 NSCLC
EKVX NSCLC = tested on: EKVX NSCLC
CCRF-CEM leukemia = tested on: CCRF-CEM leukemia
OVCAR-4 ovarian = tested on: OVCAR-4 ovarian
UO-31 renal = tested on: UO-31 renal
PC-3 prostate = tested on: PC-3 prostate
UACC-62 melanoma = tested on: UACC-62 melanoma
SK-OV-3 ovarian = tested on: SK-OV-3 ovarian
HCT-15 colon = tested on: HCT-15 colon
RPMI-8226 leukemia = tested on: RPMI-8226 leukemia
MDA-MB-435 = tested on: MDA-MB-435
SK-MEL-5 melanoma = tested on: SK-MEL-5 melanoma

SMILES: COc1cc(C2CC(C)(N3CCCC3)Oc3cc4c(cc32)OCO4)cc(OC)c1OC (stereo not given)
- TGI (TK-10 renal): > 64 µM
- TGI (SF-268 CNS): > 87.6 µM
- TGI (SK-MEL-28 melanoma): 73.8 µM
- TGI (RXF 393 renal): 0.468 µM
- TGI (786-0 renal): 17 µM
- TGI (OVCAR-3 ovarian): 45 µM
- TGI (U251 CNS): 16.4 µM
- TGI (SNB-19 CNS): > 100 µM
- TGI (KM12 colon): > 100 µM
- TGI (M14 melanoma): > 100 µM
- TGI (HCT-116 colon): > 100 µM
- TGI (IGROV1 ovarian): > 51.2 µM
- TGI (OVCAR-8 ovarian): > 44.7 µM
- TGI (NCI-H226 lung): > 82.4 µM
- TGI (HS 578T breast): > 100 µM
- TGI (NCI/ADR-RES ovarian): > 100 µM
- TGI (COLO 205 colon): > 100 µM
- TGI (NCI-H460 lung): 3.5 µM
- TGI (OVCAR-5 ovarian): > 100 µM
- TGI (ACHN renal): > 100 µM
- TGI (HOP-62 NSCLC): > 100 µM
- TGI (LOX IMVI melanoma): 15 µM
- TGI (MOLT-4 leukemia): > 49.3 µM
- TGI (SR leukemia): > 100 µM
- TGI (DU-145 prostate): > 100 µM
- TGI (NCI-H522 lung): 2.19 µM
- TGI (A498 renal): 6.12 µM
- TGI (HOP-92 NSCLC): > 100 µM
- TGI (UACC-257 melanoma): 32.5 µM
- TGI (SF-539 CNS): 0.603 µM
- TGI (MDA-N): 0.0552 µM
- TGI (HCC-2998 colon): 6.14 µM
- TGI (CAKI-1 renal): > 100 µM
- TGI (HT29 colon): 0.492 µM
- TGI (MALME-3M melanoma): > 50.7 µM
- TGI (K-562 leukemia): 10.9 µM
- TGI (SK-MEL-2 melanoma): > 100 µM
- TGI (T-47D breast): > 100 µM
- TGI (SF-295 CNS): 0.0909 µM
- TGI (MCF7 breast): 17.9 µM
- TGI (SW-620 colon): 39 µM
- TGI (BT-549 breast): 87.7 µM
- TGI (SN12C renal): 43.7 µM
- TGI (MDA-MB-231 breast): 21.9 µM
- TGI (NCI-H23 lung): > 49.6 µM
- TGI (A549 NSCLC): > 100 µM
- TGI (EKVX NSCLC): > 100 µM
- TGI (CCRF-CEM leukemia): > 100 µM
- TGI (OVCAR-4 ovarian): > 100 µM
- TGI (UO-31 renal): > 100 µM
- TGI (PC-3 prostate): 3.55 µM

SMILES: O=C(O)c1cccc(CN2CCCCC2)c1
- TGI (TK-10 renal): > 100 µM
- TGI (SF-268 CNS): > 100 µM
- TGI (SK-MEL-28 melanoma): > 100 µM
- TGI (RXF 393 renal): > 100 µM
- TGI (786-0 renal): > 100 µM
- TGI (OVCAR-3 ovarian): > 100 µM
- TGI (U251 CNS): > 100 µM
- TGI (UACC-62 melanoma): > 100 µM
- TGI (SNB-19 CNS): > 100 µM
- TGI (KM12 colon): > 100 µM
- TGI (M14 melanoma): > 100 µM
- TGI (HCT-116 colon): > 100 µM
- TGI (IGROV1 ovarian): > 100 µM
- TGI (OVCAR-8 ovarian): > 100 µM
- TGI (SK-OV-3 ovarian): > 100 µM
- TGI (NCI-H226 lung): > 100 µM
- TGI (HS 578T breast): > 100 µM
- TGI (NCI/ADR-RES ovarian): > 100 µM
- TGI (COLO 205 colon): > 100 µM
- TGI (HCT-15 colon): > 100 µM
- TGI (NCI-H460 lung): > 100 µM
- TGI (RPMI-8226 leukemia): > 100 µM
- TGI (OVCAR-5 ovarian): > 100 µM
- TGI (ACHN renal): > 100 µM
- TGI (HOP-62 NSCLC): > 100 µM
- TGI (LOX IMVI melanoma): > 100 µM
- TGI (MOLT-4 leukemia): > 100 µM
- TGI (DU-145 prostate): > 100 µM
- TGI (NCI-H522 lung): > 100 µM
- TGI (MDA-MB-435): > 100 µM
- TGI (A498 renal): > 100 µM
- TGI (UACC-257 melanoma): > 100 µM
- TGI (MDA-N): > 100 µM
- TGI (HCC-2998 colon): > 100 µM
- TGI (CAKI-1 renal): > 100 µM
- TGI (HT29 colon): > 100 µM
- TGI (MALME-3M melanoma): > 100 µM
- TGI (K-562 leukemia): > 100 µM
- TGI (SK-MEL-2 melanoma): > 100 µM
- TGI (T-47D breast): > 100 µM
- TGI (SF-295 CNS): > 100 µM
- TGI (MCF7 breast): > 100 µM
- TGI (SW-620 colon): > 100 µM
- TGI (BT-549 breast): > 100 µM
- TGI (SN12C renal): > 100 µM
- TGI (MDA-MB-231 breast): > 100 µM
- TGI (SK-MEL-5 melanoma): > 100 µM
- TGI (NCI-H23 lung): > 100 µM
- TGI (A549 NSCLC): > 100 µM
- TGI (EKVX NSCLC): > 100 µM
- TGI (CCRF-CEM leukemia): > 100 µM
- TGI (OVCAR-4 ovarian): > 100 µM
- TGI (UO-31 renal): > 100 µM
- TGI (PC-3 prostate): > 100 µM
